Measurements from patent US20240425491A1, “HETEROARYL COMPOUNDS USEFUL IN THE TREATMENT OF COGNITIVE DISORDERS” (University College Cardiff Consultants Limited, priority 2021, published 2024).
Where a name gives a salt, the structure may show the parent alone.

Columns and labels:
[1] = target: T1, human α5β3γ2L GABAA receptors in HEK293 cells (Homo sapiens, UniProt P18507+P31644); assay: In vitro electrophysiological recording assay (α5-GABAAR relative efficacy), SyncroPatch; format: cell-based; conditions: GABA EC10-20
T1 construct: expressed in transfected cells
T1 sequence (P31644 32-462): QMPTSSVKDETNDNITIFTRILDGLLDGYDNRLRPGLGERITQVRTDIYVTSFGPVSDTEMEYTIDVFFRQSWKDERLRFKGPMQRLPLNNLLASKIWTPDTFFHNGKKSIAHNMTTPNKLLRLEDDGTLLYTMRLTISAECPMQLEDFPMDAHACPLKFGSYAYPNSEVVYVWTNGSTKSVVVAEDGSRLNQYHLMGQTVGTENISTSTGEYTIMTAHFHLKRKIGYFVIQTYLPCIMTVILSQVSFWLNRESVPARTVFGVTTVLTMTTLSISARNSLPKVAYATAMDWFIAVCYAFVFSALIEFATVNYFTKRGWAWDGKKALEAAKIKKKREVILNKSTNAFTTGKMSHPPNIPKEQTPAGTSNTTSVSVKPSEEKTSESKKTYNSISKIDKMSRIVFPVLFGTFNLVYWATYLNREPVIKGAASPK
T1 sequence (P28472 26-473 partner): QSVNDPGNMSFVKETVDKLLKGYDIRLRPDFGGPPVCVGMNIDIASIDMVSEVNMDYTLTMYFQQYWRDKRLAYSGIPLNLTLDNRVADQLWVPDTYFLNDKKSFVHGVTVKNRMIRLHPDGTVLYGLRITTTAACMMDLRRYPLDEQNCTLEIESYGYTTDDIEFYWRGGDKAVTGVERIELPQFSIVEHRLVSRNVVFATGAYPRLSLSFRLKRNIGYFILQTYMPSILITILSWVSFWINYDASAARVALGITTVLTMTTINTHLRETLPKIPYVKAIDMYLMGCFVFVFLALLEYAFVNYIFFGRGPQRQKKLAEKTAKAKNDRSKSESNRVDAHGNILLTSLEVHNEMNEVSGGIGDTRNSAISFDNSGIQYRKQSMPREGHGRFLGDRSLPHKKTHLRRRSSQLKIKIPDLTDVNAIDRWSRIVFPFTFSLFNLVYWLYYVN
T1 sequence (P18507 40-475): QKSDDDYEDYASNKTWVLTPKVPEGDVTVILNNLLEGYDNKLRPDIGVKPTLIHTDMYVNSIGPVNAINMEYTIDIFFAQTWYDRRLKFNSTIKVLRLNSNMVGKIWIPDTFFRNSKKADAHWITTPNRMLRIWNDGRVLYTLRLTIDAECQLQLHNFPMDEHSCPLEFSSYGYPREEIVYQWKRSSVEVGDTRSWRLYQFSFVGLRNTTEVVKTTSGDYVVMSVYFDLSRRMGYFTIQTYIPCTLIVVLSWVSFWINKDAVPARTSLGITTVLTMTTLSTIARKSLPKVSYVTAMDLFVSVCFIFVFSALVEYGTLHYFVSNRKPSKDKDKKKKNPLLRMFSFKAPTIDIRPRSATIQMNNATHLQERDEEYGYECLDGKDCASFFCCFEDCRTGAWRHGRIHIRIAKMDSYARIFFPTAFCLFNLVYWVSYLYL
From the text: Mouse L(tk^−) cells stably expressing human α1β3γ2, α2β3γ2, α3β3γ2, α5β3γ2 GABAARs generated by transfection of the individual subunits in the dexamethasone-inducible expression vector pMSGneo in mouse L(tk^−) cells (Hadingham et al., 1993, Mol. Pharmacol. 43:970-975 and 1993, Mol. Pharmacol. 44:1211-1218) were used for binding and functional assays. For certain compounds, HEK293 cells stable expressing the human α1β3γ2L, α2β3γ2L, α3β3γ2L and α5β3γ2L GABAA receptors were used to evaluate their functional effects in a SyncroPatch electrophysiology assay.
The efficacy of modulators was evaluated using either the automated patch-clamp platform QPatch16 (Sophion, Copenhagen, Denmark) or the SyncroPatch 384i (Nanion Technologies, Germany). Cells were harvested from flasks by enzymatic dissociation and re-suspended in serum-free medium.
For the Syncropatch recordings, a stacked addition protocol was used, in which GABA was rapidly applied and then washed off from the cell. All experiments were carried out at room temperature (20-22° C.) using a standard whole cell procedure. The currents recorded were acquired at 2 kHz and filtered using a Bessel filter. Whole-cell currents were measured at a holding potential of −80 mV.
For Syncropatch recordings, the extracellular recording solution contained: 140 mM NaCl, 4 mM KCl, 2 mM CaCl2), 1 mM MgCl2, 10 mM HEPES, 5 mM glucose (pH 7.4 and osmolarity of c. 300-310 mOsm/L). The intracellular recording solution contained: 90 mM KCl, 50 mM KF, 1.5 mM MgCl2, 11.1 mM EGTA and 10 mM HEPES (pH 7.2 and osmolarity of c. 300 mOsm/L). 2 mM of NaATP was added to the intracellular solution on the day of testing.
The effects of modulators were evaluated in the presence of a submaximal GABA concentration, giving typically 10-20% activation (GABA EC10-20) of the response elicited by a saturating GABA concentration. For QPatch recordings, to check and ensure baseline current stability before compound addition, five consecutive applications of GABA EC10-20 alone (each application with a 2 s duration, separated by minimum 1 min wash off periods) were performed before compound addition. The test compound was applied using the pipetting system of the QPatch system 1 min at least prior to co-application with GABA EC10-20. For SyncroPatch recordings, GABA EC20 alone was applied three times (1 s long applications, with wash steps in-between) before compound addition. This was followed by a 1-2 min pre-incubation with the test compound and then re-application of GABA EC10-20 in the presence of the compound. Finally, following a further wash step, a saturating concentration of GABA was applied, allowing the accurate evaluation for each cell of the percentage baseline activation elicited by the submaximal GABA applied.
The compounds were first dissolved in DMSO as a 10 mM stock and then further diluted to the testing concentrations so that the final DMSO concentration in the extracellular recording solution was kept constant at 0.1% for the QPatch recordings, or 0.2% for the SyncroPatch recordings.
The % efficacy of modulators was determined from the GABA elicited currents recorded in the presence and absence of the test compound, using the formula:
[((compound peak current−leak)−(GABA peak current−leak))/(GABA peak current−leak)]*100,
where ‘leak’ is the leak baseline current at −65 mV, ‘compound peak current’ is the current elicited by co-application of compound and GABA, and ‘GABA peak current’ is the current elicited by GABA alone during the 5th GABA application. The results were presented as ‘relative efficacy’ for each compound generally at a concentration equal or higher than 100 times their determined Ki. The relative efficacy of a compound was calculated by normalising its efficacy to the efficacy of methyl-6,7-dimethoxy-4-ethyl-beta-carboline-3-carboxylate (DMCM) that was separately determined produced an attenuation of GABA-induced currents of −57±4%, n=5.

[2] = target: T2, human recombinant GABAAR containing α5β3γ2 subunits (benzodiazepine site) (Homo sapiens, UniProt P18507+P31644); assay: In vitro radioligand binding assay (α5-GABAAR Ki); conditions: inhibition of [3H]Ro15-1788 binding, membranes of L(tk−) cells expressing human α5β3γ2; read-out: α5-GABAAR Ki
T2 construct: expressed in transfected cells; host or cells: mouse L(tk−) cells, dexamethasone-inducible vector pMSGneo
T2 sequence (P31644 32-462): as the sequence (P31644 32-462) above
T2 sequence (P28472 26-473 partner): as the sequence (P28472 26-473 partner) above
T2 sequence (P18507 40-475): as the sequence (P18507 40-475) above
Summary of the method: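 Membranes from mouse L(tk^−) cells stably expressing human α5β3γ2 GABAAR incubated 1 h at 4° C with 4 nM [^3H]Ro15-1788 and test compound; nonspecific binding with 1 μM TP003. Filter-bound radioactivity counted; Ki from IC50 by Cheng-Prusoff using measured Kd.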

[3] = target: T3, human α5β3γ2 GABAARs in mouse L(tk−) cells (Homo sapiens, UniProt P18507+P31644); assay: In vitro electrophysiological recording assay (α5-GABAAR relative efficacy), QPatch; format: cell-based; conditions: GABA EC10-20
T3 construct: expressed in transfected cells; host or cells: mouse L(tk−) cells, dexamethasone-inducible vector pMSGneo
T3 sequence (P31644 32-462): as the sequence (P31644 32-462) above
T3 sequence (P28472 26-473 partner): as the sequence (P28472 26-473 partner) above
T3 sequence (P18507 40-475): as the sequence (P18507 40-475) above
Summary of the method: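 Whole-cell QPatch recordings at 20-22° C, −65 mV holding, in dexamethasone-induced (1 μM, 24 h) L(tk−) cells. Compound pre-applied ≥1 min, then co-applied with GABA EC10-20; percentage change in leak-corrected peak current, taken at ≥100× Ki, normalised to DMCM efficacy; 0.1% DMSO final.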

α5-GABAAR Relative Efficacy (to DMCM), SyncroPatch ([1]; Conc 0.1 μM) | Ki [2] | SMILES | also measured
−1.05 | 1.9 nM | COc1nc(-c2cnc(CN3CCOCC3)nc2)ccc1NC(=O)c1c(-c2ccccc2)noc1C [Example 181, N-[2-Methoxy-6-[2-(morpholinomethyl)pyrimidin-5-yl]-3-pyridyl]-5-methyl-3-phenyl-isoxazole-4-carboxamide] | 
 | 17.5 nM | COc1nc(-c2ncn3c2CN(C)CC3)ccc1NC(=O)c1c(-c2ccccc2)noc1C [Example 186, N-(2-Methoxy-6-(7-methyl-5,6,7,8-tetrahydroimidazol[1,5-a]pyrazin-1-yl)pyridin-3-yl)-5-methyl-3-phenylisoxazole-4-carboxamide] | α5-GABAAR Relative Efficacy (to DMCM), Qpatch ([3]; Conc 3 μM): −0.69
 | 23.5 nM | COc1nc(-c2ncn3c2CNCC3)ccc1NC(=O)c1c(-c2ccccc2)noc1C [Example 187, N-(2-Methoxy-6-(5,6,7,8-tetrahydroimidazo[1,5-a]pyrazin-1-yl)pyridin-3-yl)-5-methyl-3-phenylisoxazole-4-carboxamide dihydrochloride] | α5-GABAAR Relative Efficacy (to DMCM), Qpatch ([3]; Conc 3 μM): −0.46
 | 0.5 nM | COc1nc(-c2cnc(NC3CNC3)nc2)ccc1NC(=O)c1c(-c2ccccc2)noc1C [Example 188, N-[6-[2-(Azetidin-3-ylamino)pyrimidin-5-yl]-2-methoxy-3-pyridyl]-5-methyl-3-phenyl-isoxazole-4-carboxamide] | α5-GABAAR Relative Efficacy (to DMCM), Qpatch ([3]; Conc 0.1 μM): −1.08
 | 16.8 nM | COc1nc(-c2cn(CCN)cn2)ccc1NC(=O)c1c(-c2ccccc2)noc1C [Example 200, N-(6-(1-(2-Aminoethyl)-1H-imidazol-4-yl)-2-methoxypyridin-3-yl)-5-methyl-3-phenylisoxazole-4-carboxamide dihydrochloride] | α5-GABAAR Relative Efficacy (to DMCM), Qpatch ([3]; Conc 3 μM): −0.53
 | 1.1 nM | Cc1onc(-c2ccc(F)cc2)c1C(=O)Nc1ccc(-n2ccnc2)nc1OC(C)C [Example 204, 3-(4-Fluorophenyl)-N-(6-imidazol-1-yl-2-isopropoxy-3-pyridyl)-5-methyl-isoxazole-4-carboxamide] | α5-GABAAR Relative Efficacy (to DMCM), Qpatch ([3]; Conc 0.1 μM): −0.39
−0.85 | 0.4 nM | COc1nc(-c2cnc(N)nc2)ccc1NC(=O)c1c(-c2ccc(F)cc2)noc1C [Example 213, N-[6-(2-Aminopyrimidin-5-yl)-2-methoxy-3-pyridyl]-3-(4-fluorophenyl)-5-methyl-isoxazole-4-carboxamide] | 
−0.81 | 0.4 nM | Cc1onc(-c2ccccc2)c1C(=O)Nc1ccc(-c2cnc(N)nc2)nc1OC(C)C [Example 214, N-[6-(2-Aminopyrimidin-5-yl)-2-isopropoxy-3-pyridyl]-5-methyl-3-phenyl-isoxazole-4-carboxamide] | 
−0.65 | 0.6 nM | Cc1onc(-c2ccccc2)c1C(=O)Nc1ccc(-c2ccc(N)nc2)nc1OC(C)C [Example 215, N-[6-(6-Amino-3-pyridyl)-2-isopropoxy-3-pyridyl]-5-methyl-3-phenyl-isoxazole-4-carboxamide] | 
−0.67 | 1.5 nM | Cc1onc(-c2ccc(F)cc2)c1C(=O)Nc1ccc(-c2cnc(N)nc2)nc1OC1COC1 [Example 216, N-[6-(2-Aminopyrimidin-5-yl)-2-(oxetan-3-yloxy)-3-pyridyl]-3-(4-fluorophenyl)-5-methyl-isoxazole-4-carboxamide] | 
−0.16 | 6.4 nM | COCCOc1nc(-c2cnc(N)nc2)ccc1NC(=O)c1c(-c2ccc(F)cc2)noc1C [Example 217, N-[6-(2-Aminopyrimidin-5-yl)-2-(2-methoxyethoxy)-3-pyridyl]-3-(4-fluorophenyl)-5-methyl-isoxazole-4-carboxamide] | 
−0.51 | 19.5 nM | Cc1onc(-c2ccc(F)cc2)c1C(=O)Nc1ccc(-c2cnc(N)nc2)nc1OCCO [Example 218, N-[6-(2-Aminopyrimidin-5-yl)-2-(2-hydroxyethoxy)-3-pyridyl]-3-(4-fluorophenyl)-5-methyl-isoxazole-4-carboxamide] | 
 | 4.4 nM | COc1nc(-c2ccc(CO)cc2)ccc1NC(=O)c1c(-c2ccccc2)noc1C [Example 219, N-[6-[4-(hydroxymethyl)phenyl]-2-methoxy-3-pyridyl]-5-methyl-3-phenyl-isoxazole-4-carboxamide] | α5-GABAAR Relative Efficacy (to DMCM), SyncroPatch ([1]; Conc 0.03 μM): −0.45
−1.15 | 0.8 nM | COc1nc(-c2cnoc2)ccc1NC(=O)c1c(-c2ccc(F)cc2)noc1C [Example 221, 3-(4-fluorophenyl)-N-(6-(isoxazol-4-yl)-2-methoxypyridin-3-yl)-5-methylisoxazole-4-carboxamide] | 
−0.78 | 0.5 nM | COc1nc(-c2ccc(N)nc2)ccc1NC(=O)c1c(-c2ccc(F)cc2)noc1C [Example 222, N-(6′-amino-6-methoxy-[2,3′-bipyridin]-5-yl)-3-(4-fluorophenyl)-5-methylisoxazole-4-carboxamide] | 
−1.06 | 1.3 nM | COc1nc(-c2cnc(N)nc2)ncc1NC(=O)c1c(-c2ccccc2)noc1C [Example 223, N-(2′-amino-4-methoxy-[2,5′-bipyrimidin]-5-yl)-5-methyl-3-phenylisoxazole-4-carboxamide] | 

SMILES | α5-GABAAR Relative Efficacy (to DMCM), SyncroPatch ([1]; Conc 0.1 μM) | Ki [2] | also measured
COc1nc(-c2cnc(CN)nc2)ccc1NC(=O)c1c(-c2ccc(F)cc2)nnn1C.Cl [Example 184, N-(6-(2-(Aminomethyl)pyrimidin-5-yl)-2-methoxypyridin-3-yl)-4-(4-fluorophenyl)-1-methyl-1H-1,2,3-triazole-5-carboxamide hydrochloride] |  | 1.5 nM | α5-GABAAR Relative Efficacy (to DMCM), Qpatch ([3]; Conc 0.3 μM): −0.45
Cc1onc(-c2ccc(F)cc2)c1C(=O)Nc1ccc(-c2cnc(CN)nc2)nc1OC(C)C.Cl [Example 205, N-(6-(2-(Aminomethyl)pyrimidin-5-yl)-2-isopropoxypyridin-3-yl)-3-(4-fluorophenyl)-5-methylisoxazole-4-carboxamide hydrochloride] |  | 0.4 nM | α5-GABAAR Relative Efficacy (to DMCM), Qpatch ([3]; Conc 0.1 μM): −0.61
Cc1onc(-c2ccc(F)cc2)c1C(=O)Nc1ccc(-c2cnc3n2CCN(C)C3)nc1OC(C)C.Cl [Example 209, 3-(4-Fluorophenyl)-N-(2-isopropoxy-6-(7-methyl-5,6,7,8-tetrahydroimidazo[1,2-a]pyrazin-3-yl)pyridin-3-yl)-5-methylisoxazole-4-carboxamide hydrochloride] | −0.60 | 0.3 nM | 
